Assay results as given in publication PMC12820960, “Lactucopicrin: A Sesquiterpene Lactone with Anti-Inflammatory Activity Modulates the Crosstalk between NF-kB and AHR Pathways” (Journal of Medicinal Chemistry, 2025).

Molecular target: T1, Aryl Hydrocarbon Receptor (AHR) (Homo sapiens, UniProt P35869)
T1 sequence (P35869 11-848): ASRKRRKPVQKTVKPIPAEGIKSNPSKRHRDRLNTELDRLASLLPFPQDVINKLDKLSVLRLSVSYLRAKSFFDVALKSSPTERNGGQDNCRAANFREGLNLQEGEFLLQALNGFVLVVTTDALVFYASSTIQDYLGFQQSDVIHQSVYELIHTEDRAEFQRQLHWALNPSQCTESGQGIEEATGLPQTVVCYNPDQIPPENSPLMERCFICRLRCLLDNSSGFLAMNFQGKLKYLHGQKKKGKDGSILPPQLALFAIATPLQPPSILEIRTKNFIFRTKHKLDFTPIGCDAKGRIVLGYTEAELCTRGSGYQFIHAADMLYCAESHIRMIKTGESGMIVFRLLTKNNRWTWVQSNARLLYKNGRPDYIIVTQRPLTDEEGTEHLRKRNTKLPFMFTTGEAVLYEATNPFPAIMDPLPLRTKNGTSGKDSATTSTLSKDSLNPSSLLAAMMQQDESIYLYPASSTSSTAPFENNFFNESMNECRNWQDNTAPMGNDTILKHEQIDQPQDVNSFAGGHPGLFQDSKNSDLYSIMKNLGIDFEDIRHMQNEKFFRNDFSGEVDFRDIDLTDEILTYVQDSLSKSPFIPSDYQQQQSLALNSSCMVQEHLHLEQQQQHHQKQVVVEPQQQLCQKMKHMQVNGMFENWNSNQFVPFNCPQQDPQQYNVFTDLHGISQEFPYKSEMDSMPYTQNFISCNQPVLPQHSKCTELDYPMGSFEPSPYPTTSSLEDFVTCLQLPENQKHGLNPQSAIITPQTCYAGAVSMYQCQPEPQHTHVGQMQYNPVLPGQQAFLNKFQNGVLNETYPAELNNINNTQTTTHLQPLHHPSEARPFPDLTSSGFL
Test: AHR luciferase reporter activation ([…]) in THP-1, Caco-2 and EA.hy926 cells
Type: cell-based

O=C1/C(=C2\Nc3ccccc3C2=O)Nc2ccccc21 [indigo]
AHR luciferase reporter activation (1 uM) in THP-1, Caco-2 and EA.hy926 cells: AHR activation in THP-1 observed upon exposure to indigo, a known AHR agonist
